# pEC50: −log10 of the molar value. Where two headings read alike, the source gives them in different places.
# System: HCV NS5A replicon GT-1a
# Experiment: HCV NS5A replicon anti-viral activity (EC50), dual-reporter Renilla luciferase, GT-1a
# Assay type: cell-based
# Settings: for pEC50: Hepatitis C virus
# Description: The autonomous replication level of HCV in liver cells in vitro is very low, and the only animal that can be infected by HCV is chimpanzee, therefore there is no appropriate animal model currently available for preclinical pharmacodynamic study. Some researchers have transplanted human liver tissue infected with HCV in vitro into immune deficient mice to establish an in vivo mice model, but these mice are hard to raise and the model is unstable and short of normal immunologic reaction. Moreover, the model has significant difference with the pathogenic process of hepatitis C, therefore, it has not been used for animal model to assess the action of anti-HCV medicine yet. The progress of the development of anti-viral drugs for the treatment of HCV infection had been very slow because the pathogenic mechanism and life cycle of HCV were unclear before 1999 due to the lack of cell culture system for effective multiplication of HCV. But researchers managed to achieve a breakthrough in 1999 after numerous attempts. An effective cell culture model-replicon system in which HCV is capable of autonomous replication in transfected human hepatic carcinoma cell line Huh-7 had been established in that year on the basis of subgenomic HCV RNA built with genetic engineering.
# The above-mentioned cell culture model-replicon system which has been widely accepted in the industry is used in this invention for ex vivo experiments and subsequent assessment of drugs based on the experiment results.
# The therapeutic effect of the compounds of this invention on HCV infection can be preliminarily assessed through the following preclinical in vitro inhibitory action test and can be further confirmed in clinical trials. Other methods used in the invention are also quite familiar to professionals in this field with ordinary technical knowledge. Method for testing the anti-viral activity(EC50) in HCV NS5A replicon system: • The viral replication level in infected cells was determined by testing Renilla luciferase with the newly established dual-reporter gene replicon system. There was a good linear relation between the expression level of the reporter gene and the HCV RNA replication level and viral protein expression level. The anti-viral activity was determined for 3 replicates in 3 replicate cells at five(5) 1:2 diluted concentration gradients, with 1 to 2 positive controls. The EC50 of the compounds was calculated in the end.
# The compounds of the invention, or their stereoisomers, tautomers, esterified or amidated prodrugs, or pharmaceutically acceptable salts and mixtures have been subjected to test to determined their therapeutic effects in the treatment of HCV infection. […] Moreover, the results of 6a-6ep(Ia), 6fa-6gq(Ib) and reference compounds Ref-1(BMS-790052), Ref-2(GS5885), Ref-3 in HCV-NS5 inhibition test reveal that the cyclopentanyl/hexamethyleneamino radical containing linear polypeptide compounds 6a-6ep, 6fa-6gq and reference compounds Ref-1, Ref-2, Ref-3 have good HCV inhibitory results. […] The replicons GT-1a, GT-lb, GT-2a, GT-3a, GT-4a, GT-5a and GT-6a used for the test are routine replicons commercially available in this field. Table 1: HCV NS5A replicon inhibitory activity test results of compounds (6a-6gq) of the invention
# [1] = GT1A, GT-1a replicon, read-out: NS5A Inhibitory Activity (EC50 of GT-1a subtype inhibition)
structure (smiles),measurement,setting,value
COC(=O)N[C@H](C(=O)N1CCC[C@H]1c1nc(-c2ccc(-c3ccc(-c4cnc([C@@H]5C=CCN5C(=O)[C@@H](NC(=O)OC(C)(C)C)C(C)C)[nH]4)cc3)cc2)c[nH]1)C(C)C [6bc],pEC50,[1],7.30 to 9.00
CC(C)[C@H](NC(=O)OC1CCCC1)C(=O)N1CC=C[C@H]1c1ncc(-c2ccc(-c3ccc(-c4c[nH]c([C@@H]5CCCN5C(=O)[C@@H](NC(=O)OC5CCCC5)C(C)C)n4)cc3)cc2)[nH]1 [6bg],pEC50,[1],< 7.30
COC(=O)N[C@H](C(=O)N1CCC[C@H]1c1ncc(-c2ccc(-c3csc4c(-c5ccc6nc([C@@H]7C=CCN7C(=O)[C@H](NC(=O)OC)c7ccccc7)[nH]c6c5)csc34)cc2)[nH]1)C(C)C [6ga],pEC50,[1],9.00 to 12.00
COC(=O)N[C@H](C(=O)N1CC=C[C@H]1c1ncc(-c2ccc(-c3cccc4c(-c5cnc([C@@H]6CCCN6C(=O)[C@@H](NC(=O)OC)C(C)C)[nH]5)cccc34)cc2)[nH]1)C(C)C [6ef],pEC50,[1],9.00 to 12.00
COC(=O)N[C@H](C(=O)N1CC=C[C@H]1c1nc(-c2ccc(-c3ccc(-c4c[nH]c([C@@H]5CCCN5C(=O)C5(NC(=O)OC)CC5)n4)cc3)cc2)c[nH]1)C(C)C [6bh],pEC50,[1],9.00 to 12.00
COC(=O)N[C@H](C(=O)N1CCC[C@H]1c1nc(-c2ccc(-c3ccc(-c4c[nH]c([C@@H]5C[C@H](Oc6nc7ccccc7nc6-c6cccs6)CN5C(=O)[C@@H](NC(=O)OC)C(C)C)n4)cc3)cc2)c[nH]1)C(C)C [6x],pEC50,[1],9.00 to 12.00
COC(=O)N[C@H](C(=O)N1CC=C[C@H]1c1nc(-c2csc3c(-c4ccc(-c5cnc([C@@H]6CCCN6C(=O)[C@H](NC(=O)OC)c6ccccc6)[nH]5)cc4)csc23)c[nH]1)C(C)C [6ft],pEC50,[1],9.00 to 12.00
COC(=O)N[C@H](C(=O)N1CCC[C@H]1c1ncc(-c2ccc(-c3ccc(-c4cnc([C@@H]5C=CCN5C(=O)[C@@H](NC(=O)N(C)C)C(C)C)[nH]4)cc3)cc2)[nH]1)C(C)C [6ci],pEC50,[1],9.00 to 12.00
COC(=O)N[C@H](C(=O)N1CC=C[C@H]1c1ncc(-c2ccc(-c3ccc4[nH]c([C@@H]5CC6(CC6)CN5C(=O)[C@@H](NC(=O)OC)C(C)C)nc4c3)cc2)[nH]1)C(C)C [6eb],pEC50,[1],9.00 to 12.00
COC(=O)N[C@H](C(=O)N1CC=C[C@H]1c1ncc(-c2ccc(-c3cc4sc(-c5cnc([C@@H]6CCCN6C(=O)[C@H](NC(=O)OC)c6ccccc6)[nH]5)cc4o3)cc2)[nH]1)C(C)C [6fq],pEC50,[1],9.00 to 12.00
COC(=O)N[C@H](C(=O)N1CC=C[C@H]1c1nc2ccc(-c3csc4c(-c5ccc(-c6cnc([C@@H]7CCCN7C(=O)[C@@H](NC(=O)OC)C(C)C)[nH]6)cc5)csc34)cc2[nH]1)C(C)C [6fz],pEC50,[1],9.00 to 12.00
same,pEC50,"genotype 1a / genotype 6a, read-out: Inhibitory activity against various HCV-NS5A subtypes(EC50, GT-1a to GT-6a) GT-1a",11.15
same,"inhibitory activity compared with Ref-1(BMS-790052), Ref-2(GS5885), Ref-3 and Ref-4 (in words)",comparison drawn from Table 2,significantly superior
COC(=O)N[C@H](C(=O)N1CC=C[C@H]1c1nc2ccc(-c3csc4c(-c5ccc(-c6cnc([C@@H]7CCCN7C(=O)[C@H](NC(=O)OC)c7ccccc7)[nH]6)cc5)csc34)cc2[nH]1)C(C)C [6fy],pEC50,[1],9.00 to 12.00
COC(=O)N[C@H](C(=O)N1CCCC[C@H]1c1nc(-c2ccc(-c3ccc(-c4c[nH]c([C@@H]5COCCN5C(=O)[C@@H](NC(=O)OC)C(C)C)n4)cc3)cc2)c[nH]1)C(C)C [6aj],pEC50,[1],9.00 to 12.00

# — patent publication EP3153515A1, “COMPOUNDS FOR INHIBITING HEPATITIS C VIRUS, PHARMACEUTICAL COMPOSITIONS AND USES THEREOF” (priority 2014, dated 2015)
